What follows are molecules tested against T1, human CRTH2 (Homo sapiens, UniProt Q9Y5Y4) (assay: Human CRTH2 Receptor Binding Assay (whole cell, [3H]ramatroban competition)). Conditions: CHO-K1 cells stably expressing human CRTH2 and G-alpha16; 20 nM [3H]ramatroban; 1 hour, room temperature.
T1 construct: expressed in transfected cells
T1 sequence (Q9Y5Y4 1-395): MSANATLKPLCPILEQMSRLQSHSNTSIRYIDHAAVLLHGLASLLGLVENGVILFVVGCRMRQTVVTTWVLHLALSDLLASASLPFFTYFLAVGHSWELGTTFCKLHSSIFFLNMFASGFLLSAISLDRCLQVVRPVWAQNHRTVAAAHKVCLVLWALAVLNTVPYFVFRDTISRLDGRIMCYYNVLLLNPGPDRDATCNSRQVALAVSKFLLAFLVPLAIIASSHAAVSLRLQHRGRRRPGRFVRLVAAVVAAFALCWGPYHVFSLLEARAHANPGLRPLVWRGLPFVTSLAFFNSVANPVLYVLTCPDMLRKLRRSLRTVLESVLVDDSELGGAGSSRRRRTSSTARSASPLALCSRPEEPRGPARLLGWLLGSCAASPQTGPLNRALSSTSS
Source text: A whole cell receptor binding assay using [^3H]ramatroban as the competing radioactive ligand was employed to evaluate the compound binding activity to human CRTH2. The radioactive ligand [^3H]ramatroban was synthesized according to Sugimoto et. al. (Eur. J. Pharmacol. 524, 30-37, 2005) to a specific activity of 42 Ci/mmol.
A cell line stably expressing human CRTH2 was established by transfecting CHO-K1 cells with two mammalian expression vectors that harbored human CRTH2 and G-alpha16 cDNAs, respectively, using FuGene® 6 transfection reagent (from Roche). Stable clones expressing CRTH2 were selected by staining each clone with BM16 (BD Pharmingen™ from BD Biosciences, a division of Becton, Dickinson and Company), which is a rat monoclonal antibody to human CRTH2. The cells were maintained as monolayer cultures in Ham's F-12 medium containing 10% fetal bovine serum, 100 units/mL penicillin, 100 μg/mL streptomycin, 2 mM glutamine, 0.5 mg/mL G418 (geneticin) for CRTH2, and 0.2 mg/mL hygromycin-B (for G-alpha 16). For whole cell receptor binding assay, the monolayer cells were rinsed once with PBS (phosphate buffered saline), dissociated using ethylenediaminetetraacetate (Versene™ EDTA from Lonza Inc.), and suspended in PBS containing 10 mM MgCl2 and 0.06% BSA (bovine serum albumin) at 1.5×10^6 cells/mL.
The binding reactions (0.2 mL) were performed in 96-well plates at room temperature in PBS containing 1.5×10^5 cells, 10 mM MgCl2, 0.06% BSA, 20 nM [^3H]ramatroban, and test compound at various concentrations. After 1 hour of binding reactions, the cells were harvested on GF™/B filter microplates (microtiter plates with embedded glass fiber from PerkinElmer, Inc.) and washed 5 times with PBS using a Filtermate™ Harvester (a cell harvester that harvests and washes cells from microplates from PerkinElmer, Inc.). The radioactivities bound to the cells were determined using a microplate scintillation counter (TopCount® NXT, from PerkinElmer, Inc.) after adding 50 μL of Microscint™ 20 scintillation fluid (from PerkinElmer, Inc.) to each well of the filter plates. The radioactivity from non-specific binding was determined by replacing compound with 10 μM of 15(R)-15-methyl PGD2 (from Cayman Chemical Company) in the reaction mixtures. The radioactivity bound to the cells in the absence of compound (total binding) was determined by replacing compound with 0.25% of DMSO (dimethyl sulfoxide) in the reaction mixture. Specific binding data were obtained by subtracting the radioactivity of non-specific binding from each binding data.
The IC50 value is defined as the concentration of the tested compound that is required for 50% inhibition of total specific binding. In order to calculate the IC50 value, the percent inhibition data were determined for 7 concentrations for each compound. The percent inhibition for a compound at each concentration was calculated according to the following formula, [1−(specific binding in the presence of compound)/(total specific binding)]×100. The IC50 value was then obtained by fitting the percent inhibition data to a sigmoidal dose-response (4 parameter logistic) model in the XLfit® software Excel add-in program [from ID Business Solutions Ltd., model 205, where F(x)=(A+(B−A)/(1+((C/x)^D)))].

Compound | IC50 [µM]
CCS(=O)(=O)c1cc(C(F)(F)F)cc(S(=O)(=O)N(C)[C@@H]2CCCc3c2cnn3CC(=O)O)c1 [Example 10-1a, {(R)-4-[(3-Ethanesulfonyl-5-trifluoromethyl-benzenesulfonyl)-methyl-amino]-4,5,6,7-tetrahydro-indazol-1-yl}-acetic acid] | 0.0025
CN([C@@H]1CCCc2c1cnn2CC(=O)O)S(=O)(=O)c1cc(C(F)(F)F)cc(S(=O)(=O)C2CCCC2)c1 [Example 10-2a, {(R)-4-[(3-Cyclopentanesulfonyl-5-trifluoromethyl-benzenesulfonyl)-methyl-amino]-4,5,6,7-tetrahydro-indazol-1-yl}-acetic acid] | 0.0029
CC(C)S(=O)(=O)c1cc(C(F)(F)F)cc(S(=O)(=O)N(C)[C@@H]2CCCc3c2cnn3CC(=O)O)c1 [Example 10-3a, ((R)-4-{Methyl-[3-(propane-2-sulfonyl)-5-trifluoromethyl-benzenesulfonyl]-amino}-4,5,6,7-tetrahydro-indazol-1-yl)-acetic acid] | 0.0021
CN([C@@H]1CCCc2c1cnn2CC(=O)O)S(=O)(=O)c1cc(C(F)(F)F)cc(S(=O)(=O)C(C)(C)C)c1 [Example 10-4a, ((R)-4-{Methyl-[3-(2-methyl-propane-2-sulfonyl)-5-trifluoromethyl-benzenesulfonyl]-amino}-4,5,6,7-tetrahydro-indazol-1-yl)-acetic acid] | 0.0047
CC(C)S(=O)(=O)c1cc(C(F)(F)F)cc(S(=O)(=O)N(C)[C@@H]2CCCc3c2cnn3CCC(=O)O)c1 [Example 10-5a, 3-((R)-4-{Methyl-[3-(propane-2-sulfonyl)-5-trifluoromethyl-benzenesulfonyl]-amino}-4,5,6,7-tetrahydro-indazol-1-yl)-propionic acid] | 0.0024
CN([C@@H]1CCCc2c1cnn2CCC(=O)O)S(=O)(=O)c1cc(C(F)(F)F)cc(S(=O)(=O)C(C)(C)C)c1 [Example 10-7a, 3-((R)-4-{Methyl-[3-(2-methyl-propane-2-sulfonyl)-5-trifluoromethyl-benzenesulfonyl]-amino}-4,5,6,7-tetrahydro-indazol-1-yl)-propionic acid] | 0.0125
CC(C)c1cc(C(F)(F)F)cc(S(=O)(=O)N(C)[C@@H]2CCCc3c2cnn3CC(=O)O)c1 [Example 13-1a, {(R)-4-[(3-isopropyl-5-trifluoromethyl-benzenesulfonyl)-methyl-amino]-4,5,6,7-tetrahydro-indazol-1-yl}-acetic acid] | 0.0073
CN([C@@H]1CCCc2c1cnn2CC(=O)O)S(=O)(=O)c1cc(C(F)(F)F)cc(C2(C)CC2)c1 [Example 14-1a, ((R)-4-{Methyl-[3-(1-methyl-cyclopropyl)-5-trifluoromethyl-benzenesulfonyl]-amino}-4,5,6,7-tetrahydro-indazol-1-yl)-acetic acid] | 0.0062
CCC1(c2cc(C(F)(F)F)cc(S(=O)(=O)N(C)[C@@H]3CCCc4c3cnn4CC(=O)O)c2)CC1 [Example 15-1a, ((R)-4-{[3-(1-Ethyl-cyclopropyl)-5-trifluoromethyl-benzenesulfonyl]-methyl-amino}-4,5,6,7-tetrahydro-indazol-1-yl)-acetic acid] | 0.0123
C#Cc1cc(C(F)(F)F)cc(S(=O)(=O)NC2CCCc3c2cnn3CC(=O)O)c1 (stereo not shown) [Example 16-1a, [4-(3-Ethynyl-5-trifluoromethyl-benzenesulfonylamino)-4,5,6,7-tetrahydro-indazol-1-yl]-acetic acid] | 0.0698
CC(=O)c1cc(C(F)(F)F)cc(S(=O)(=O)N(C)[C@@H]2CCCc3c2cnn3CC(=O)O)c1 [Example 19-1a, {(R)-4-[(3-Acetyl-5-trifluoromethyl-benzenesulfonyl)-methyl-amino]-4,5,6,7-tetrahydro-indazol-1-yl}-acetic acid] | 0.007
CN([C@@H]1CCCc2c1cnn2C(C)(C)C(=O)O)S(=O)(=O)c1cc(C(F)(F)F)cc(C(F)(F)F)c1 [Example 21-1a, 2-{(R)-4-[(3,5-Bis-trifluoromethyl-benzenesulfonyl)-methyl-amino]-4,5,6,7-tetrahydro-indazol-1-yl}-2-methyl-propionic acid] | 0.278
CS(=O)(=O)Nc1cccc(S(=O)(=O)NC2CCCc3c2cnn3CC(=O)O)c1 (stereo not shown) [Example 23-1a, [4-(3-Methanesulfonylamino-benzenesulfonylamino)-4,5,6,7-tetrahydro-indazol-1-yl]-acetic acid] | 0.0395
CN([C@@H]1CCCc2c1cnn2CC(=O)O)S(=O)(=O)c1cc(N2CCCC2)cc(C(F)(F)F)c1 [Example 24-1a, {(R)-4-[Methyl-(3-pyrrolidin-1-yl-5-trifluoromethyl-benzenesulfonyl)-amino]-4,5,6,7-tetrahydro-indazol-1-yl}-acetic acid] | 0.0381

Continued by falling IC50, values first:

IC50 [µM] | Compound
0.0801 | CC(=O)Nc1cccc(S(=O)(=O)NC2CCCc3c2cnn3CC(=O)O)c1 (stereo not shown) [Example 22-1a, [4-(3-Acetylamino-benzenesulfonylamino)-4,5,6,7-tetrahydro-indazol-1-yl]-acetic acid]
0.0556 | CN([C@@H]1CCCc2c1cnn2CC(=O)O)S(=O)(=O)c1cc(C(F)(F)F)cc([Si](C)(C)C)c1 [Example 17-1a, {(R)-4-[Methyl-(3-trifluoromethyl-5-trimethylsilanyl-benzenesulfonyl)-amino]-4,5,6,7-tetrahydro-indazol-1-yl}-acetic acid]
0.0457 | CC(C)N(C)c1cc(C(F)(F)F)cc(S(=O)(=O)N(C)[C@@H]2CCCc3c2cnn3CC(=O)O)c1 [Example 24-2a, ((R)-4-{[3-(Isopropyl-methyl-amino)-5-trifluoromethyl-benzenesulfonyl]-methyl-amino}-4,5,6,7-tetrahydro-indazol-1-yl)-acetic acid]
0.0286 | CN([C@@H]1CCCc2c1cnn2CC(=O)O)S(=O)(=O)c1cc(C2CCCC2)cc(C(F)(F)F)c1 [Example 18-1a, {(R)-4-[(3-Cyclopentyl-5-trifluoromethyl-benzenesulfonyl)-methyl-amino]-4,5,6,7-tetrahydro-indazol-1-yl}-acetic acid]
0.022 | CC(C)c1cc(C(F)(F)F)cc(S(=O)(=O)N[C@@H]2CCCc3c2cnn3CC(=O)O)c1 [Example 12-1a, (R)-[4-(3-Isopropyl-5-trifluoromethyl-benzenesulfonylamino)-4,5,6,7-tetrahydro-indazol-1-yl]-acetic acid]
0.0078 | CC1(c2cc(C(F)(F)F)cc(S(=O)(=O)N[C@@H]3CCCc4c3cnn4CC(=O)O)c2)CC1 [Example 11-1a, {(R)-4-[3-(1-Methyl-cyclopropyl)-5-trifluoromethyl-benzenesulfonylamino]-4,5,6,7-tetrahydro-indazol-1-yl}-acetic acid]
0.0035 | CN([C@@H]1CCCc2c1cnn2CC(=O)O)S(=O)(=O)c1cc(C(C)(F)F)cc(C(F)(F)F)c1 [Example 20-1a, ((R)-4-{[3-(1,1-Difluoro-ethyl)-5-trifluoromethyl-benzenesulfonyl]-methyl-amino}-4,5,6,7-tetrahydro-indazol-1-yl)-acetic acid]
0.0033 | CN([C@@H]1CCCc2c1cnn2CCC(=O)O)S(=O)(=O)c1cc(C(F)(F)F)cc(S(=O)(=O)C2CCCC2)c1 [Example 10-6a, 3-{(R)-4-[(3-Cyclopentanesulfonyl-5-trifluoromethyl-benzenesulfonyl)-methyl-amino]-4,5,6,7-tetrahydro-indazol-1-yl}-propionic acid]
